# Test system: phosphorylation of Serine 473 in Akt
# Experiment: In Vitro Phospho-Ser473 Akt Assay in MDA-MB-468 cells
# Assay type: cell-based
# Settings: Homo sapiens, MDA-MB-468, read-out: IC50 values against mTOR, phospho-Ser473 Akt assay, MDA-MB-468 cells
row,SMILES,IC50
1,COc1ccc(-c2ccc3c(N4CCOC[C@@H]4C)nc(N4CCC(C#N)(c5ccccc5)CC4)nc3n2)cc1CO [Example 18an],< 0.1 µM
2,COc1ccc(-c2ccc3c(N4CCOC[C@@H]4C)nc(N4CCCC4C)nc3n2)cc1CO (stereo partly drawn) [Example 18ap],< 0.1 µM
3,COc1ccc(-c2ccc3c(N4CCOC[C@@H]4C)nc(N4CCC(c5ccc(Cl)cc5)CC4)nc3n2)cc1CO [Example 18aq],< 0.3 µM
4,COc1ccc(-c2ccc3c(N4CCOC[C@@H]4C)nc(N4CCCC(c5nc(C)no5)C4)nc3n2)cc1CO (stereo partly drawn) [Example 18ar],< 0.1 µM
5,COc1ccc(-c2ccc3c(N4CCOC[C@@H]4C)nc(N4CCCC(CN(C)C)C4)nc3n2)cc1CO (stereo partly drawn) [Example 18as],< 0.3 µM
6,COc1ccc(-c2ccc3c(N4CCOC[C@@H]4C)nc(N4CCCC(N)C4)nc3n2)cc1CO (stereo partly drawn) [Example 18au],< 0.1 µM
7,COc1ccc(-c2ccc3c(N4CCOC[C@@H]4C)nc(NC(C)CC(C)C)nc3n2)cc1CO (stereo partly drawn) [Example 18av],< 0.3 µM
8,COc1ccc(-c2ccc3c(N4CCOC[C@@H]4C)nc(NC4CCCC4)nc3n2)cc1CO [Example 18aw],< 0.1 µM
9,COCC(C)Nc1nc(N2CCOC[C@@H]2C)c2ccc(-c3ccc(OC)c(CO)c3)nc2n1 (stereo partly drawn) [Example 18ax],< 0.1 µM
10,COc1ccc(-c2ccc3c(N4CCOC[C@@H]4C)nc(-n4ccnc4)nc3n2)cc1CO [Example 18ay],< 0.3 µM
11,COc1ccc(-c2ccc3c(N4CCOC[C@@H]4C)nc(-n4cnc(C)c4C=O)nc3n2)cc1CO [Example 18ba],< 0.1 µM
12,COc1ccc(-c2ccc3c(N4CCOC[C@@H]4C)nc(-n4cnc(Br)c4)nc3n2)cc1CO [Example 18bb],< 0.3 µM
13,COc1ccc(-c2ccc3c(N4CCOC[C@@H]4C)nc(-n4cc(Br)nc4C)nc3n2)cc1CO [Example 18bc],< 0.3 µM
14,CCC1CCC(C)N(c2nc(N3CCOC[C@@H]3C)c3ccc(-c4ccc(OC)c(CO)c4)nc3n2)C1 (stereo partly drawn) [Example 18bd],< 0.1 µM
15,COc1ccc(-c2ccc3c(N4CCOC[C@@H]4C)nc(N4CCC(c5ccccc5)CC4)nc3n2)cc1CO [Example 18be],< 0.1 µM
16,COc1ccc(-c2ccc3c(N4CCOC[C@@H]4C)nc(N4CCOC(c5ccccc5)C4)nc3n2)cc1CO (stereo partly drawn) [Example 18bf],< 0.3 µM
17,COc1ccc(-c2ccc3c(N4CCOC[C@@H]4C)nc(N4C(C)CCC4C)nc3n2)cc1CO (stereo partly drawn) [Example 18bg],< 0.1 µM
18,COc1ccc(-c2ccc3c(N4CCOC[C@@H]4C)nc(N4CCC(c5ccncc5)CC4)nc3n2)cc1CO [Example 18bi],< 0.1 µM
19,COc1ccc(-c2ccc3c(N4CCOC[C@@H]4C)nc(N4CCC[C@H](O)C4)nc3n2)cc1CO [Example 18bj],< 0.1 µM
20,COc1ccc(-c2ccc3c(N4CCOC[C@@H]4C)nc(N4CCC[C@@H](O)C4)nc3n2)cc1CO [Example 18bk],< 0.1 µM
21,COc1ccc(-c2ccc3c(N4CCOC[C@@H]4C)nc(N4CCOc5ccccc54)nc3n2)cc1CO [Example 18bl],< 0.3 µM

row,SMILES,IC50
1,COc1ccc(-c2ccc3c(N4CCOC[C@@H]4C)nc(N4CCCCC4CO)nc3n2)cc1CO (stereo partly drawn) [Example 18bm],< 0.1 µM
2,COc1ccc(-c2ccc3c(N4CCOC[C@@H]4C)nc(N4CC[C@@H](O)C4)nc3n2)cc1CO [Example 18bn],< 0.1 µM
3,COC[C@@H](C)Nc1nc(N2CCOC[C@@H]2C)c2ccc(-c3ccc(OC)c(CO)c3)nc2n1 [Example 18bo],< 0.1 µM
4,CCNc1nc(N2CCOC[C@@H]2C)c2ccc(-c3ccc(OC)c(CO)c3)nc2n1 [Example 18bq],< 0.3 µM
5,COc1ccc(-c2ccc3c(N4CCOC[C@@H]4C)nc(NC(C)C)nc3n2)cc1CO [Example 18br],< 0.1 µM
6,COc1ccc(-c2ccc3c(N4CCOC[C@@H]4C)nc(NCCF)nc3n2)cc1CO [Example 18bt],< 0.3 µM
7,COc1ccc(-c2ccc3c(N4CCOC[C@@H]4C)nc(N[C@H](C)CO)nc3n2)cc1CO [Example 18bw],< 0.1 µM
8,COc1ccc(-c2ccc3c(N4CCOC[C@@H]4C)nc(N[C@@H](C)CO)nc3n2)cc1CO [Example 18bx],< 0.3 µM
9,COc1ccc(-c2ccc3c(N4CCOC[C@@H]4C)nc(NCC(F)F)nc3n2)cc1CO [Example 18bz],< 0.3 µM
10,COc1ccc(-c2ccc3c(N4CCOC[C@@H]4C)nc(N4CCCCC4)nc3n2)cc1CO [Example 18c],< 0.1 µM
11,COc1ccc(-c2ccc3c(N4CCOC[C@@H]4C)nc(N4CCNCC4)nc3n2)cc1CO [Example 18ca],< 0.3 µM
12,COc1ccc(-c2ccc3c(N4CCOC[C@@H]4C)nc(NC(C)(C)CO)nc3n2)cc1CO [Example 18cc],< 0.1 µM
13,COc1ccc(-c2ccc3c(N4CCOC[C@@H]4C)nc(NC(CO)CO)nc3n2)cc1CO [Example 18cd],< 0.3 µM
14,COc1ccc(-c2ccc3c(N4CCOC[C@@H]4C)nc(N4CCNC(=O)C4)nc3n2)cc1CO [Example 18cf],< 0.1 µM
15,COc1ccc(-c2ccc3c(N4CCOC[C@@H]4C)nc(N4CCN(C)CC4)nc3n2)cc1CO [Example 18cg],< 0.3 µM
16,COc1ccc(-c2ccc3c(N4CCOC[C@@H]4C)nc(N4CCSCC4)nc3n2)cc1CO [Example 18ch],< 0.1 µM
17,COCCN(CCOC)c1nc(N2CCOC[C@@H]2C)c2ccc(-c3ccc(OC)c(CO)c3)nc2n1 [Example 18cj],< 0.1 µM
18,COc1ccc(-c2ccc3c(N4CCOC[C@@H]4C)nc(N(CCO)CCO)nc3n2)cc1CO [Example 18ck],< 0.1 µM
19,COc1ccc(-c2ccc3c(N4CCOC[C@@H]4C)nc(N4CCC[C@@H]4CO)nc3n2)cc1CO [Example 18cm],< 0.1 µM
20,COc1ccc(-c2ccc3c(N4CCOC[C@@H]4C)nc(-n4ccnc4C)nc3n2)cc1CO [Example 18cn],< 0.3 µM
21,COc1ccc(-c2ccc3c(N4CCOC[C@@H]4C)nc(N4CCNC(=O)C4C)nc3n2)cc1CO (stereo partly drawn) [Example 18co],< 0.1 µM

row,SMILES,IC50
1,COc1ccc(-c2ccc3c(N4CCOC[C@@H]4C)nc(N(C)CCO)nc3n2)cc1CO [Example 18cr],< 0.1 µM
2,COc1ccc(-c2ccc3c(N4CCOC[C@@H]4C)nc(N(CCO)C(C)C)nc3n2)cc1CO [Example 18cs],< 0.1 µM
3,COCCOc1nc(N2CCOC[C@@H]2C)c2ccc(-c3ccc(OC)c(CO)c3)nc2n1 [Example 18cx],< 0.3 µM
4,COc1ccc(-c2ccc3c(N4CCOC[C@@H]4C)nc(N4CCCCCC4)nc3n2)cc1CO [Example 18d],< 0.1 µM
5,CNCCOc1nc(N2CCOC[C@@H]2C)c2ccc(-c3ccc(OC)c(CO)c3)nc2n1 [Example 18db],< 0.1 µM
6,COc1ccc(-c2ccc3c(N4CCOC[C@@H]4C)nc(N4CCCCO4)nc3n2)cc1CO [Example 18dd],< 0.3 µM
7,C[C@@H]1CN(c2nc(N3CCOC[C@@H]3C)c3ccc(-c4ccc(Cl)cc4)nc3n2)C[C@H](C)O1 [Example 18dh],< 0.3 µM
8,C[C@H]1COCCN1c1nc(N2CCOCC2)nc2nc(-c3ccc(Cl)cc3)ccc12 [Example 18di],< 0.3 µM
9,COc1ccc(-c2ccc3c(N4CCOC[C@@H]4C)nc(N4CCCCC(N)C4)nc3n2)cc1CO (stereo partly drawn) [Example 18e],< 0.3 µM
10,COc1ccc(-c2ccc3c(N4CCOC[C@@H]4C)nc(N4CCC(c5cccc(O)c5)CC4)nc3n2)cc1CO [Example 18f],< 0.1 µM
11,COc1ccc(-c2ccc3c(N4CCOC[C@@H]4C)nc(N4CCC(CCO)CC4)nc3n2)cc1CO [Example 18g],< 0.1 µM
12,COc1ccc(-c2ccc3c(N4CCOC[C@@H]4C)nc(N4CCCC(C(F)(F)F)C4)nc3n2)cc1CO (stereo partly drawn) [Example 18h],< 0.3 µM
13,COc1ccc(-c2ccc3c(N4CCOC[C@@H]4C)nc(N4CCCC(C)C4)nc3n2)cc1CO (stereo partly drawn) [Example 18i],< 0.1 µM
14,COc1ccc(-c2ccc3c(N4CCOC[C@@H]4C)nc(N4CCCC(O)C4)nc3n2)cc1CO (stereo partly drawn) [Example 18k],< 0.1 µM
15,COc1ccc(-c2ccc3c(N4CCOC[C@@H]4C)nc(Nc4ccccc4)nc3n2)cc1CO [Example 18m],< 0.1 µM
16,COc1ccc(-c2ccc3c(N4CCOC[C@@H]4C)nc(Nc4ccccn4)nc3n2)cc1CO [Example 18p],< 0.3 µM
17,COc1ccc(-c2ccc3c(N4CCOC[C@@H]4C)nc(N4CCCC4)nc3n2)cc1CO [Example 18q],< 0.1 µM
18,CCOC(=O)C1CCCN(c2nc(N3CCOC[C@@H]3C)c3ccc(-c4ccc(OC)c(CO)c4)nc3n2)C1 (stereo partly drawn) [Example 18r],< 0.1 µM
19,COc1ccc(-c2ccc3c(N4CCOC[C@@H]4C)nc(N4CCC(CN)CC4)nc3n2)cc1CO [Example 18s],< 0.1 µM

# Same assay, conditions: Homo sapiens, MDA-MB-468, read-out: IC50 values against mTOR, phospho-Ser473 Akt assay, MDA-MB-468 cells, upper bound
row,SMILES,IC50
1,COC(=O)c1cncn1-c1nc(N2CCOC[C@@H]2C)c2ccc(-c3ccc(OC)c(CO)c3)nc2n1 [Example 18az],< 1 µM
2,CNc1nc(N2CCOC[C@@H]2C)c2ccc(-c3ccc(OC)c(CO)c3)nc2n1 [Example 18bp],< 1 µM
3,COc1ccc(-c2ccc3c(N4CCOC[C@@H]4C)nc(NCCO)nc3n2)cc1CO [Example 18bs],< 1 µM
4,CNCCNc1nc(N2CCOC[C@@H]2C)c2ccc(-c3ccc(OC)c(CO)c3)nc2n1 [Example 18bv],< 1 µM
5,COCCNc1nc(N2CCOC[C@@H]2C)c2ccc(-c3ccc(OC)c(CO)c3)nc2n1 [Example 18by],< 1 µM
6,COc1ccc(-c2ccc3c(N4CCOC[C@@H]4C)nc(NCCN(C)C)nc3n2)cc1CO [Example 18cb],< 1 µM
7,COc1ccc(-c2ccc3c(N4CCOC[C@@H]4C)nc(NC(C)CN(C)C)nc3n2)cc1CO (stereo partly drawn) [Example 18ct],< 1 µM
8,CCOc1nc(N2CCOC[C@@H]2C)c2ccc(-c3ccc(OC)c(CO)c3)nc2n1 [Example 18cv],< 1 µM
9,C[C@H]1CCCCN1c1nc(N2CCOC[C@@H]2C)c2ccc(-c3ccc(Cl)cc3)nc2n1 [Example 18de],< 1 µM
10,C[C@@H]1CCCCN1c1nc(N2CCOC[C@@H]2C)c2ccc(-c3ccc(Cl)cc3)nc2n1 [Example 18dg],< 1 µM
11,C[C@H]1COCCN1c1nc(N2CCC(C(N)=O)CC2)nc2nc(-c3ccc(Cl)cc3)ccc12 [Example 18dj],< 1 µM
12,COc1ccc(-c2ccc3c(N4CCOC[C@@H]4C)nc(N4CCCC(c5ccccc5)C4)nc3n2)cc1CO (stereo partly drawn) [Example 18j],< 1 µM
13,COc1ccc(-c2ccc3c(N4CCOC[C@@H]4C)nc(Nc4ccncn4)nc3n2)cc1CO [Example 18n],< 1 µM
14,COc1ccc(-c2ccc3c(N4CCOC[C@@H]4C)nc(Nc4cccnc4)nc3n2)cc1CO [Example 18o],< 1 µM
